# Legend:
# S. aureus [1] = conditions: with S. aureus; Adv. Funct. Mater. 2013, 23, 4801-4809; cited from earlier work
# S. aureus [2] = experiment: PAR in solution: S. aureus growth and minimal inhibitory concentration in MHB medium; assay type: cell-based, Staphylococcus aureus; conditions: for inhibition of S. aureus growth by PAR in solution (in words): concentrations up to 0.04 mg·mL^−1, 24 h at 37° C. in MHB; for times less active than PAR100 or PAR200 chains: from the MICs determined in solution; for inhibition of bacterial growth by PAR in solution (in words): at 1 μM
# Protocol: PAR with 10, 30, 100 or 200 arginine residues per chain were tested. Each PAR was incubated 24 h at 37° C. in 300 μL of MHB medium with S. aureus (A620=0.001). Pathogen growth of 0% corresponds to medium with antibiotics (and without PAR) and 100% to medium without PAR. Each value corresponds to the mean value of 3 individual experiments (3 samples per experiment and condition) and error bars correspond to standard deviations. For each concentration, the first column represents the normalized pathogen growth of S. aureus for PAR10, the 2nd column for PAR30, the third column for PAR100 and the fourth for PAR200.
# In the following the inventors of the present invention wanted to further elucidate the underlying mechanism that confer to the coatings of the invention the strong inhibitory property on the surface and in the supernatant. As an example the (PAR30/HA)24 coating was further investigated. Accordingly, the minimal inhibitory concentration (MIC) of PAR in solution was determined using bacterial assay as described in Experimental Section. […] Finally for PAR at concentrations of 0.01 mg·mL^−1, inhibition of 100% was shown only for PAR30. Longer or shorter PAR chains (PAR10, PAR100 or PAR200) inhibits only partially (less than 40%) S. aureus growth. […] This reasoning is valid when PAR concentration values are expressed in mass (mg·mL^−1) thus it is related to the number of arginine monomers. However when the graph is plotted with concentrations in μM (and thus proportional in number of chains), which means that concentration is related to number of chains, different interpretation can be made. […] Moreover the MIC100 values obtained for PAR30, PAR100 or PAR200 ranges at very low concentrations (between 1 and 2 μM) which is remarkable when compared to well-known antimicrobial peptides (for example 30 μM for cateslytin with S. aureus, see Adv. Funct. Mater. 2013, 23, 4801-4809). PAR is thus a powerful candidate to fight against S. aureus.
Substance,MIC of a known antimicrobial peptide (S. aureus [1]),"concentration needed to totally inhibit bacterial growth in solution (S. aureus [2]; S. aureus, PAR in solution)",inhibition of S. aureus growth by PAR in solution (in words) (S. aureus [2]),times less active than PAR100 or PAR200 chains (S. aureus [2]),"inhibition of S. aureus growth by PAR in solution (S. aureus [2]; 0.01 mg·mL^−1, 24 h at 37° C. in MHB)","MIC90 (S. aureus [2]; S. aureus, PAR in solution)",inhibition of bacterial growth by PAR in solution (in words) (S. aureus [2]),"inhibition of S. aureus growth by PAR in solution (S. aureus [2]; 0.02 mg·mL^−1, 24 h at 37° C. in MHB)"
cateslytin,30 µM,,,,,,,
poly-L-arginine [PAR10],,about 10 μM,totally inhibited,10 times,,,,
poly-L-arginine [PAR30],,about 10 μM,totally inhibited,2 times,100%,about 2 μM,,
poly-L-arginine [PAR100],,,totally inhibited,,,,totally inhibit,
poly-L-arginine [PAR200],,,totally inhibited,,,,totally inhibit,about 45%

# Source: US11602578B2, “Crosslinkable polypeptide and hyaluronic acid coatings” (Université de Strasbourg, priority 2017, dated 2023)
